From patent US20210221867A1, “Compounds Capable of Binding to Melanocortin 4 Receptor” (Novo Nordisk A/S, priority 2018, published 2021)
Starred links: 1 amine or outer side, 2 acyl side, 3 side chain; linkers in the order of their positions; H or OH if unused. Positions of bridges follow the written chain, without caps; N, C: chain ends. Non-standard residues stand in square brackets, D forms with d. Residues, ends and D or L forms follow the SMILES beside them. dPhe(4-Cl) = N[C@H](Cc1ccc(Cl)cc1)C(=O)O; X1 = NC(N)NCCC[C@@H](N[*:1])C(=O)[*:2]; X3 = NCNCCC[C@@H](N[*:1])C(=O)[*:2]; X2 = NCNCCC[C@H](N[*:1])C(=O)[*:2]; Nle = CCCC[C@H](N)C(=O)O

Key:
human MC4R [1] = biological target: T1, human MC4R (Homo sapiens, UniProt P32245); assay: Functional human melanocortin receptor 4 assay (cAMP, HTRF); assay type: cell-based; conditions: cAMP induction, BHK cells expressing the human MC4 receptor, 30 min, 25° C.
T1 construct: expressed in transfected cells
T1 sequence (P32245 whole entry): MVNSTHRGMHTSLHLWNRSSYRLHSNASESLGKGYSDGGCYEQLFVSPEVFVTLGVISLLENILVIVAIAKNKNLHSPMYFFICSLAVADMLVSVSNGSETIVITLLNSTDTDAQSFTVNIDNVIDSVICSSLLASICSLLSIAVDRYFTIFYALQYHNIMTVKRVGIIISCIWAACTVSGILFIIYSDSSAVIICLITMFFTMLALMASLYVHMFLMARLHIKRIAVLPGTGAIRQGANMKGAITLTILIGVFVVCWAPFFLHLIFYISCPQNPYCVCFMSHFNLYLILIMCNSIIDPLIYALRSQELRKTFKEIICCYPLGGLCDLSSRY
Description: (§1) In order to assess the potency of the compounds on human MC1R and human MC4R cAMP signalling was measured.
(§2) cAMP induction was measured by c-AMPdynamic2 assay, HTRF 62AM4PEC system from CisBio for the human MC1R and human MC4R according to the protocol provided by the vendor. BHK cells expressing the human MC1 or MC4 receptor were generated by stable transfection with expression vectors encoding the cDNA of either MC1R or MC4R. In details; 25 μl compound—or standard solution were added in the respective wells.
(§3) Compound was reconstituted in buffer (DMEM w/o phenol red, 10 mM Hepes, lx Glutamine, 0.1% OV-albumin1, 1 mM IBMX) and serially diluted starting at 2 μM, 10-fold seven times. Dilutions were carried out in the same aforementioned buffer to the desired working concentration ranges (2× higher than the final concentration). 25 μl cell solution was then added and allowed to incubate for 30 min while lightly shaking, at 25° C. […] The provided components for the assay were reconstituted according to the CisBio assay protocol “3.1 supplied reagents and preparation procedure” in MilliQ purification system H2O and diluted 1:20 in lysis buffer. 25 μl cAMP-d2 and 25 μl Cryptate conjugate were added to all wells. Plates were centrifuged at 1500 rpm for 30 sec and incubated for 1 h, lightly shaking, at 25° C. in a hotel stacker. The plates were read on Mithras LB 940 provided by Berthold Technologies
(§4) The data were analysed by non-linear regression analysis of binding curves, using the Windows™ program GraphPad™ Prism (GraphPad Software, USA). EC50 is a measure of the potency of a given compound and is defined herein as the half maximal effective concentration of the compound which induces a response (cAMP induction) halfway between the baseline and maximum response value after a fixed reaction time. Data listed as >, indicate that the highest concentration tested had no effect, where “no effect” is defined as the highest compound concentration with agonistic effect 5% of maximal response of the reference compound NDP-alpha-MSH. […]

human MC1R [2] = biological target: T2, human MC1R (Homo sapiens, UniProt Q01726); assay: MC1 receptor binding assay (SPA, 125I-NDP-α-MSH); conditions: displacement of 125I-NDP-α-MSH, membranes from BHK cells stably expressing the human MC1 receptor, read-out: MC1R binding IC50
T2 construct: expressed in transfected cells
T2 sequence (Q01726 whole entry): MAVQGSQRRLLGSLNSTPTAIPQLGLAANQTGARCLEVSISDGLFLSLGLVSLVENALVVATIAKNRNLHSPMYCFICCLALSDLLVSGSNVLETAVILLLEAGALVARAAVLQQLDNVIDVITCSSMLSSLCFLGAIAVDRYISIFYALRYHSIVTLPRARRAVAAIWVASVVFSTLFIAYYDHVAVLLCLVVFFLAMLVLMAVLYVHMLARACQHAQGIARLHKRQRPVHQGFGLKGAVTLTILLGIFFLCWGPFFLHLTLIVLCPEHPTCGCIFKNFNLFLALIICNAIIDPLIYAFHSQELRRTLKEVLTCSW
Description: In Vitro ^125I-NDP-α-MSH Binding to Recombinant BHK Cells Stably Expressing the Human MC1 Receptor (SPA Binding Assay).
In order to assess the binding affinity of the selected compounds for the human MC1R, competitive binding assays were performed with radiolabelled NDP-alpha MSH (^125I-NDP-α-MSH) and membranes from BHK cells stably expressing the human MC1 receptor.
(§5) The BHK cell membranes are prepared from frozen or fresh cells that are homogenised in ice cold buffer (20 mM HEPES, 5 mM MgCl2, 1 mg/ml Bacitracin, pH 7.1 and one Complete™ Protease Inhibitor Cocktail Tablet per 25 ml (Catalogue number 05 056 489 001 from Roche-applied-science)) and centrifuged at 25000 g at 4° C. for 10 minutes. The supernatant is discarded, and the pellets are re-suspended in the buffer, and then homogenised and centrifuged two more times. The pellets are pooled, and the final pellet is re-suspended in buffer, aliquoted and subsequently stored at −80° C.
(§6) The SPA Binding assay was performed in 96-well white opaque plates. Each well contained: 0.5 mg PVT-WGA SPA beads, MC1 receptor expressing membrane diluted to give approximately 10% specific tracer binding, 50.000 dpm ^125I-NDP-α-MSH and relevant dilutions of test compound. The final volume in each well was 200 μl. Assay buffer was 25 mM HEPES, pH 7.0, containing 1.5 mM CaCl2, 1 mM MgSO4, 0.21% (w/v) ovalbumin, 1 mM 1,10-Phenanthroline and one Complete™ Protease Inhibitor Cocktail Tablet per 100 ml. Plates were incubated overnight (22-24 hours) at room temperature before counting for 2 minutes per well, using a TopCount NXT scintillation counter. Displacement of radio ligand is measured as reduction in light emission from SPA beads, and IC50 values are calculated by nonlinear regression analysis of sigmoidal dose-response curves in GraphPad Prism (GraphPad Software, La Jolla, Calif., USA).

human MC4R [3] = biological target: T1, human MC4R; assay: MC4 receptor binding assay (SPA, 125I-NDP-α-MSH); conditions: displacement of 125I-NDP-α-MSH, membranes from BHK cells stably expressing the human MC4 receptor, read-out: MC4R binding IC50
Description: In Vitro ^125I-NDP-α-MSH Binding to Recombinant BHK Cells Stably Expressing the Human MC4 Receptor (SPA Binding Assay).
In order to assess the binding affinity of the selected compounds for the human MC4R, competitive binding assays were performed with radiolabelled NDP-alpha MSH (^125I-NDP-α-MSH) and membranes from BHK cells stably expressing the human MC4 receptor.
as §5
as §6, with “MC4” for “MC1”

human MC1R [4] = biological target: T2, human MC1R; assay: Functional human melanocortin receptor 1 assay (cAMP, HTRF); assay type: cell-based; conditions: cAMP induction, BHK cells expressing the human MC1 receptor, 30 min, 25° C.
Description: as §1, §2, §3, §4

SMILES | EC50 (human MC4R [1]) | IC50 (human MC1R [2]) | IC50 (human MC4R [3]) | EC50 (human MC1R [4])
CCCC[C@H](NC(=O)[C@H](CCC(=O)O)NC(=O)[C@@H](CCCNC(=N)N)NC(=O)[C@@H]1CCCN1C(=O)[C@@H]1CCCN1C(=O)[C@@H]1CSSC[C@H](NC(C)=O)C(=O)N2CCC[C@H]2C(=O)N[C@@H](Cc2c[nH]cn2)C(=O)N[C@H](Cc2ccccc2)C(=O)N[C@@H](Cc2c[nH]cn2)C(=O)N[C@@H](Cc2c[nH]c3ccccc23)C(=O)N1)C(=O)N[C@H](CCCNC(=N)N)C(=O)N[C@H](CCCNC(=N)N)C(=O)N[C@H](CCCNC(=N)N)C(N)=O [Chem. 16, Ac-c[Cys-Pro-His-D-Phe- His-Trp-Cys]-Pro-Pro-D- Arg-Glu-Nle-D-Arg-D- Arg-D-Arg-NH2] (Ac-CPH[dF]HWCPP[dR]E[Nle][dR][dR][dR]-NH2; disulfide 1-7) | 0.16 nM | 138 nM | 0.27 nM | 
CCCC[C@H](NC(=O)[C@H](CCC(=O)O)NC(=O)[C@@H](CCCNC(=N)N)NC(=O)[C@@H]1CCCN1C(=O)[C@@H]1CCCN1C(=O)[C@@H]1CSSC[C@H](NC(C)=O)C(=O)N2CCC[C@H]2C(=O)N[C@@H](Cc2c[nH]cn2)C(=O)N[C@H](Cc2ccccc2)C(=O)N[C@@H](Cc2c[nH]cn2)C(=O)N[C@@H](Cc2c[nH]c3ccccc23)C(=O)N1)C(=O)N[C@@H](CCCNCN)C(=O)N[C@H](CCCNC(=N)N)C(N)=O [Chem. 15, Ac-c[Cys-Pro-His-D-Phe- His-Trp-Cys]-Pro-D- Arg-Glu-Nle-Arg-D-Arg- NH2] (Ac-CPH[dF]HWCPP[dR]E[Nle][X2][dR]-NH2; disulfide 1-7) |  |  | 0.88 nM | 
CCCC[C@H](NC(=O)[C@H](CCC(=O)O)NC(=O)[C@@H](CCCNC(=N)N)NC(=O)[C@@H]1CCCN1C(=O)[C@@H]1CCCN1C(=O)[C@@H]1CSSC[C@H](NC(=O)[C@H](CCCNC(=N)N)NC(C)=O)C(=O)N2CCC[C@H]2C(=O)N[C@@H](Cc2c[nH]cn2)C(=O)N[C@H](Cc2ccccc2)C(=O)N[C@@H](Cc2c[nH]cn2)C(=O)N[C@@H](Cc2c[nH]c3ccccc23)C(=O)N1)C(=O)N[C@H](CCCNC(N)N)C(=O)N[C@H](CCCNC(=N)N)C(N)=O [Chem. 6, Ac-D-Arg-c[Cys-Pro-His- D-Phe-His-Trp-Cys]-Pro- Pro-D-Arg-Glu-Nle-D- Arg-D-Arg-NH2] (Ac-RCPH[dF]HWCPP[dR]E[Nle][X1][dR]-NH2; disulfide 2-8) | 0.32 nM | 44.1 nM | 0.35 nM | 126 nM
CCCC[C@H](NC(=O)[C@H](CCC(=O)O)NC(=O)[C@@H](CCCNC(=N)N)NC(=O)[C@@H]1CCCN1C(=O)[C@@H]1CCCN1C(=O)[C@@H]1CSSC[C@H](NC(C)=O)C(=O)N2CCC[C@H]2C(=O)N[C@@H](Cc2c[nH]cn2)C(=O)N[C@H](Cc2ccc(Cl)cc2)C(=O)N[C@@H](Cc2c[nH]cn2)C(=O)N[C@@H](Cc2c[nH]c3ccccc23)C(=O)N1)C(=O)N[C@H](CCCNCN)C(=O)N[C@H](CCCNC(=N)N)C(N)=O [Chem. 10, Ac-c[Cys-Pro-His-D-Cl- Phe-His-Trp-Cys]-Pro- Pro-D-Arg-Glu-Nle-D- Arg-D-Arg-NH2] (Ac-CPH[dPhe(4-Cl)]HWCPP[dR]E[Nle][X3][dR]-NH2; disulfide 1-7) |  | 172 nM |  | 
CC(=O)N[C@H](CCCNC(=N)N)C(=O)N[C@H]1CSSC[C@@H](C(=O)N2CCC[C@H]2C(=O)N2CCC[C@H]2C(=O)N[C@H](CCCNC(=N)N)C(=O)N[C@H](CCCNC(=N)N)C(N)=O)NC(=O)[C@H](Cc2c[nH]c3ccccc23)NC(=O)[C@H](Cc2c[nH]cn2)NC(=O)[C@@H](Cc2ccccc2)NC(=O)[C@H](Cc2c[nH]cn2)NC(=O)[C@@H]2CCCN2C1=O [Chem. 18, Ac-D-Arg-c[Cys-Pro-His- D-Phe-His-Trp-Cys]-Pro- Pro-D-Arg-D-Arg-NH2] (Ac-[dR]CPH[dF]HWCPP[dR][dR]-NH2; disulfide 2-8) | 0.19 nM | 69 nM | 0.39 nM | 179 nM
CCCC[C@H](NC(=O)[C@H](CCC(=O)O)NC(=O)[C@@H](CCCNC(=N)N)NC(=O)[C@@H]1CCCN1C(=O)[C@@H]1CCCN1C(=O)[C@@H]1CSSC[C@H](NC(=O)[C@H](CCCNC(=N)N)NC(C)=O)C(=O)N2CCC[C@H]2C(=O)N[C@@H](Cc2c[nH]cn2)C(=O)N[C@H](Cc2ccccc2)C(=O)N[C@@H](Cc2c[nH]cn2)C(=O)N[C@@H](Cc2c[nH]c3ccccc23)C(=O)N1)C(=O)N[C@H](CCCNC(N)N)C(=O)N[C@H](CCCNC(=N)N)C(N)=O [Chem. 5, Ac-Arg-c[Cys-Pro-His-D- Phe-His-Trp-Cys]-Pro- Pro-D-Arg-Glu-Nle-D- Arg-D-Arg-NH2] (Ac-RCPH[dF]HWCPP[dR]E[Nle][X1][dR]-NH2; disulfide 2-8) |  |  |  | 172 nM
